Data set [1] deals with liver disorder caused by CCl₄. The experiment in a line: Effect on the liver disorder caused by CCl₄ (serum GOT and GPT levels). The data set is classed as in vivo, male Wistar rats. Conditions: 24 hours after CCl₄ 0.25ml/kg intraperitoneally, test compound 300mg/kg orally 30 minutes before, rat. As to the method:
The rat liver disorder model cause by CCl₄ is generally used to examine the efficacy of a drug for liver diseases.
The test compound was suspended in tragacanth gum solution and administered orally to male Wistar rats ( 5rats a group) at a dose of 300mg/kg.
Thirty minutes later, CCl₄ a liver disorder inducer, was given intraperitoneally at a dose of 0.25ml/kg.
Serum GOT and GPT levels were measured 24 hours after the administration of CCl₄ . To a control, 0.5% tragacanth gum solution was given.

For data set [2], the system named is haemolytic plaque-forming spleen cells. The experiment in a line: Effect on immune response against sheep red blood cells of mouse (haemolytic plaque-forming spleen cell count). The data set is classed as in vivo, female BALB/c mice. The following applies: Erythrocyte, ip, 96 h, mice immunized with 5 x 10⁸ sheep red blood cells i.p., compound administered continuously for 4 days, calculated from the cell count, read-out: 50% suppressive dose. As to the method: According to the method of Iso ( Int. J. Immunotherapy, 1, 93 (1985)), 5 x 10⁸ sheep red blood cells were administered intraperitoneally to female BALB/c mice ( 3 to 5 mice a group ) and immunized.
After immunization, the test compound suspended in 1% methyl cellulose solution was administered continuously for 4 days.
Mice were killed and the number of haemolytic plaque-forming spleen cells were measured.
50% suppressive dose was calculated based on the cell count. For a comparison, the similar test with the known compound of the formula[IV] described in US Patent 4305958 was performed.

Another data set is described as follows: Acute toxicity. Also noted: species or system ddY mice. Conditions: mouse, in vivo; oral, ddY mice, male, single dose of 2000mg/kg; read-out: LD₅₀. As to the method:
(§1) The compound No.2 was suspended in 0.5% methyl cellulose solution at 20% concentration. The solution was administered orally to ddY mice ( male, 5 weeks age, 6 mice a group ) at a dose of 2000mg/kg.

Another data set concerns ddY mice. The data set is described as follows: Acute toxicity. The following applies: mouse, in vivo, po, 2000 mg/kg. As to the method:
as §1

The text below walks through data of patent EP0326326A1, “Cysteine derivatives” (SANTEN PHARMACEUTICAL CO., LTD., priority 1988, dated 1989).

In data set [1], `CC(C)(CS)C(=O)N[C@@H](CS)C(=O)O` [Compound No.2, N-(2,2-Dimethyl-3-mercaptopropionyl)-L-cysteine] returned a GOT of 13605 and a GPT of 6558. In data set [2], the ED50 was 19.1 mg/kg. Moreover, the LD50 in “Acute toxicity” was greater than 2000 mg/kg. The Toxicity entry with ddY mice is reported as “weak with a single case of death”.

On to `CC(C)(S)C(=O)NC(CS)C(=O)O` (stereo not drawn) [known compound, reference compound], for which the ED50 in data set [2] was 90.6 mg/kg.
